These results are taken from patent US20220370416A1, “COMPOUNDS AND METHODS FOR TARGETED DEGRADATION OF KRAS” (Arvinas Operations, Inc., priority 2020, published 2022).

As a reminder, the Dmax is the largest share of the target that was removed. The term DC50 denotes the concentration at which degradation of the target reaches its halfway point.

Common to all, as to format: cell-based
Assay [1] concerns the target T1, KRAS^G12C (Homo sapiens, UniProt P01116, G12C). The assay is described as follows: Engagement and degradation of endogenous KRAS^G12C in NCI-H2030 cells (blot quantitation). Details: MRTX849-VHL bifunctional compounds engage and degrade endogenous KRAS^G12C in NCI-H2030 cells; endogenous in cells; host or cells: NCI-H2030.
For assay [2], the target named is T1, KRAS^G12C. The assay is described as follows: KRAS^G12C engagement and degradation in homozygous, MRTX849 resistant SW1573 cells. Details: MRTX849-VHL bifunctional compounds engage and degrade endogenous KRAS^G12C in NCI-H2030 cells; endogenous in cells; host or cells: NCI-H2030, NCI-H358, MIA PaCa-2, SW1573, NCI-H23.
Assay [3] concerns the target T1, KRAS^G12C. The assay is described as follows: KRAS^G12C engagement and degradation by immunoblot in NCI-H2030 cells. Details: MRTX849-VHL bifunctional compounds engage and degrade endogenous KRAS^G12C in NCI-H2030 cells; endogenous in cells; host or cells: NCI-H2030, NCI-H358, MIA PaCa-2, SW1573, NCI-H23. Conditions: for KRAS, two-way ANOVA significance vs DMSO: FIG. 9A. The procedure:
NCI-H2030 (CRL-5914), MIA PaCa-2 (CRL-1420), NCI-H23 (CRL-5800), NCI-H358 (CRL-5807), and HCT-116 (CCL-247) cells were obtained from ATCC, expanded immediately, and frozen down. Vials were thawed and used within 20 passages. SW1573 cells were a gift from Arvinas and were handled in the same manner. NCI-H2030, NCI-H23, and NCI-H358 were cultured in RPMI (ATCC30-2001) supplemented with 10% FBS (Biological Industries; cat. no. S1480) and 1% Penicillin-Streptomycin (ThermoFisher; cat. no. 15140122). HCT-116 cells were maintained in high glucose DMEM (ThermoFisher; cat. no. 11965084) supplemented as above. MIA PaCa-2 cells were cultured in high glucose DMEM supplemented with 10% FBS, 2.5% horse serum (ThermoFisher; cat. no. 26050-088; lot 2109875), and 1% Penicillin-Streptomycin. SW1573 cells were maintained in DMEM/F12 Nutrient Mix with GlutaMAX supplement (ThermoFisher; cat. no. 10565018) with 10% FBS and 1% Penicillin-Streptomycin added. DPBS (ThermoFisher; cat. no. 14190250) was used to wash cells and 0.25% Trypsin-EDTA (ThermoFisher; cat. no. […]) was used to detach cells for passaging. […] The VHL ligand was generously provided by Arvinas.
Between 2.5×10^5 and 6.0×10^5 cells were seeded into 6-well plates (Corning; cat. no. 353046). The next day, media was removed and cells were treated with 2.5 μM LC-2 for 1, 2, 4, 8, 12, or 24 hours. […] For 24-hour time course experiments, cells were treated at the indicated times and concurrently lysed in RIPA buffer supplemented as described previously. For longer time course experiments and time courses in which cells were treated with LC-2 or LC-2 Epimer, cells were concurrently treated with either compound, then lysed by scraping in RIPA buffer at the indicated time points.
Between 2.5×10^5 and 5.0×10^5 cells were seeded into 6-well plates. The next day cells were pretreated with DMSO, 500 μM or 1 mM VHL ligand, 1 μM epoxomicin, 1 μM […], or 100 nM […] bafilomycin A1 for 1 hour. Media was then removed and cells were treated with DMSO, 2.5 μM LC-2 plus DMSO, 2.5 μM LC-2 Epimer plus DMSO, or co-treated with 2.5 μM LC-2 and the corresponding competitor/inhibitor. H2030 cells were treated for 4 hours and H23 cells were treated for 24 hours, after which cells were lysed by scraping in RIPA buffer supplemented as described previously.
Cell lysates were clarified at 21000×g for 15 mins at 4° C. Protein levels were quantified using a 50:1 mixture of bicinchoninic acid solution (Millipore Sigma; cat. no. B9643) and 4% (w/v) copper(II) sulfate solution (Millipore Sigma; cat. no. C2284) incubated at 37° C. for 30 mins. Absorbance values at 560 nm were read on an EnVision 2101 Multilabel Reader (PerkinElmer). Proteins were separated using 26 well Criterion TGX precast 4-15% (cat. no. 5671085) or 8-16% (cat. no. 5671105) gradient midi gels. After separation, proteins were transferred to nitrocellulose or PVDF membranes at 76 V for 2 hours at 4° C. Blots were then blocked in 5% milk in tris-buffered saline with Tween-20 (TBST; 20 mM Tris, 150 mM NaCl, 0.02% Tween-20). After blocking, blots were incubated in primary antibody overnight (12-18 hours) at 4° C. or for 2 hours at room temperature with mild agitation at the manufacturer's indicated dilution in either 5% milk or 5% BSA in TBST. Blots were then washed thrice with TBST for 5 mins at room temperature. After washing, blots were incubated with 1:5,000-1:10,000 of donkey anti-rabbit (GE Life Sciences; NA934) or sheep anti-mouse (GE Life Sciences; NA931) secondary antibody diluted in 5% milk for 1 hour at room temperature with mild agitation. Blots were again washed thrice with TBST for 5 mins. Chemiluminescent signal was generated using Amersham ECL Prime Western Blotting Detection Reagant (GE Life Sciences; cat. no. RPN2232) or SuperSignal West Femto Maximum Sensitivity Substrate (ThermoFisher; cat. no. 34095). Images were obtained using a Bio-Rad ChemiDoc Imager.

The target in assay [4] is T1, KRAS^G12C. The assay is described as follows: KRAS^G12C degradation in heterozygous H358 cells. Details: endogenous in cells; host or cells: NCI-H358. Conditions: heterozygous H358 cells (FIG. 4A).
Where [5] appears, read: SW1573 cells, 72 hour time course (FIG. 8).
Setting [6] is: SW1573 cells, time course (FIG. 6B).
Where [7] appears, read: NCI-H2030, homozygous KRAS^G12C.

With `C=C(F)C(=O)N1CCN(c2nc(OC[C@@H]3CCCN3CCCOCCC(=O)N[C@H](C(=O)N3C[C@@H](O)C[C@H]3C(=O)NCc3ccc(-c4scnc4C)cc3)C(C)(C)C)nc3c2CCN(c2cccc4cccc(Cl)c24)C3)C[C@@H]1CC#N` [LC-2 Epimer, (2S,4S)-1-((S)-2-(3-(3-((S)-2-(((7-(8-chloronaphthalen-1-yl)-4-((S)-3-(cyanomethyl)-4-(2-fluoroacryloyl)piperazin-1-yl)-5,6,7,8-tetrahydropyrido[3,4-d]pyrimidin-2-yl)oxy)methyl)pyrrolidin-1-yl)propoxy)propanamido)-3,3-dimethylbutanoyl)-4-hydroxy-N-(4-(4-methylthiazol-5-yl)benzyl)pyrrolidine-2-carboxamide], the “induction of KRAS^G12C degradation” value was “does not induce KRAS^G12C degradation” on KRAS^G12C [1] (2.5 μM (FIG. 5A)) and “not” on KRAS^G12C [4]. Further, at KRAS^G12C [2] (setting [5]), the “change of KRAS^G12C level over 72 hours” value is “No change is observed”. In addition, at KRAS^G12C [3] (NCI-H2030, 2.5 μM), the “earliest time KRAS^G12C binding seen” value came out at 1 h. Besides, on KRAS^G12C [3] (NCI-H2030, 2.5 μM, 4 hours), the “KRAS engagement versus degradation” value was “only KRAS engagement was observed”.

Turning to `C=C(F)C(=O)N1CCN(c2nc(OC[C@@H]3CCCN3CCCOCCC(=O)N[C@H](C(=O)N3C[C@H](O)C[C@H]3C(=O)NCc3ccc(-c4scnc4C)cc3)C(C)(C)C)nc3c2CCN(c2cccc4cccc(Cl)c24)C3)C[C@@H]1CC#N` [LC-2, (2S,4R)-1-((S)-2-(3-(3-((S)-2-(((7-(8-chloronaphthalen-1-yl)-4-((S)-3-(cyanomethyl)-4-(2-fluoroacryloyl)piperazin-1-yl)-5,6,7,8-tetrahydropyrido[3,4-d]pyrimidin-2-yl)oxy)methyl)pyrrolidin-1-yl)propoxy)propanamido)-3,3-dimethylbutanoyl)-4-hydroxy-N-(4-(4-methylthiazol-5-yl)benzyl)pyrrolidine-2-carboxamide], the “rescue of induced KRAS^G12C degradation (mechanism)” value on KRAS^G12C [1] (VHL ligand competition, epoxomicin, MLN924 (FIG. 5A)) was “rescued by VHL ligand competition, proteasome inhibition with epoxomicin (Epox), and neddylation inhibition with MLN924 (MLN)”. Also, on KRAS^G12C [1] (dose response (FIG. 2C)), the “degradation of KRAS^G12C” value is on record as “degrades KRAS^G12C in a dose dependent manner”. For the same molecule, on KRAS^G12C [1] (time course (FIG. 6A)), the “maximal KRAS^G12C degradation maintained up to” value was 24 h and the “time to maximal KRAS^G12C degradation” value is at most 8 h. In addition, on KRAS^G12C [2] (setting [5]), the “KRAS^G12C degradation maintained for” value came out at 72 h and the “time to onset of KRAS^G12C degradation” value is at most 6 h. For the same molecule, at KRAS^G12C [2] (setting [6]), the “maximal KRAS^G12C degradation maintained up to” value is 24 h and the “time to maximal KRAS^G12C degradation” value is 12 h. Moreover, on KRAS^G12C [2] (homozygous, MRTX849 resistant SW1573 cells (FIG. 4C)), the “induction of KRAS^G12C degradation” value was “induces KRAS^G12C degradation”. The Dmax at KRAS^G12C [3] (NCI-H2030) is above 75%. In addition, the “KRAS, two-way ANOVA significance vs DMSO” value on KRAS^G12C [3] (NCI-H2030, 0.1 μM) is “N.S”. For the same molecule, the “KRAS, two-way ANOVA significance vs DMSO” value on KRAS^G12C [3] (NCI-H2030, 0.25 μM) is reported as “N.S”. Besides, on KRAS^G12C [3] (NCI-H2030, 2.5 μM), the “earliest time KRAS^G12C binding seen” value was determined as 1 h and the “time to maximum degradation” value was at most 8 h. The molecule further had a KRAS degradation at KRAS^G12C [3] (NCI-H2030, 2.5 μM, 4 hours) of around 65%. On KRAS^G12C [3] (NCI-H2030, 2.5 μM, 24 hour time course), the “persistence of maximum degradation” value was “persisted up to 24 hours”. On KRAS^G12C [3] (setting [7]), this molecule yielded a DC50 of 590 ± 200 nM and a Dmax above 75%. The “lowest concentration inducing maximal degradation of endogenous KRAS^G12C” value at KRAS^G12C [3] (NCI-H2030 cells) stood at 2.5 µM. The “induction of KRAS^G12C degradation” value on KRAS^G12C [4] is reported as “induces KRAS^G12C degradation”.
